Laboratory results as given in ChEMBL document CHEMBL3885861, “Open TG-GATES”.

Organism: Rattus norvegicus
Assay: Open TG-GATES - Regimen: Single
Format: toxicity, organism-based, Sprague-Dawley
Parameters: regimen Single, gender Male, age 6 weeks
Conditions: in vivo, po, route gavage; for APTT / Bas / Eos / Fbg / Hb / Ht / Lym / MCH / MCHC / MCV / Mono / Neu / PT / Plat / RBC / Ret / WBC: tissue Blood; for KIDNEY_L / KIDNEY_R / KIDNEY_TOTAL: tissue Kidney; for LIVER: tissue Liver; for A/G / ALP / ALT / AST / BUN / CRE / Ca / Cl / DBIL / GLC / IP / K / LDH / Na / PL / RALB / TBIL / TC / TG / TP / gamma-GTP: tissue Plasma
[1] = 100 mg/kg, 6 h, dose level High
[2] = 100 mg/kg, 9 h, dose level High
[3] = 100 mg/kg, 24 h, dose level High
[4] = 100 mg/kg, 24 h, dose level Low
[5] = 300 mg/kg, 3 h, dose level Middle
[6] = 300 mg/kg, 6 h, dose level Middle

## O=C1CN(/N=C/c2ccc([N+](=O)[O-])o2)C(=O)N1 [NITROFURANTOIN]
100 mg/kg, 6 h, dose level Low
  TERMINAL_BW: 199.6 g
  APTT: 16.4 s
  Eos: 1.2%
  Fbg: 215.8 mg/dL
  Hb: 13.4 g/dL
  Ht: 40.6%
  Lym: 74.6%
  MCH: 21.3 pg
  MCHC: 32.9%
  MCV: 64.5 fL
  Mono: 6.8%
  Neu: 17.8%
  PT: 11.7 s
  Plat: 121.5 x10_4/uL
  RBC: 629.8 x10_4/ul
  Ret: 7%
  WBC: 89.8 x10_2/uL
  KIDNEY_L: 0.9 g
  KIDNEY_R: 0.9 g
  KIDNEY_TOTAL: 1.8 g
  LIVER: 8.3 g
  A/G: 2.2
  ALP: 1217 IU/L
  AST: 66 IU/L
  BUN: 13.6 mg/dL
  Ca: 11 mg/dL
  Cl: 104.6 meq/L
  DBIL: 0.008 mg/dL
  GLC: 190.8 mg/dL
  IP: 8.7 mg/dL
  K: 4.6 meq/L
  LDH: 92.2 IU/L
  Na: 139.4 meq/L
  PL: 150.8 mg/dL
  RALB: 3.9 g/dL
  TBIL: 0.036 mg/dL
  TC: 100 mg/dL
  TG: 44 mg/dL
  TP: 5.7 g/dL
  gamma-GTP: 0.4 IU/L
[1]
  APTT: 18.6 s
  Bas: 0%
  Eos: 1%
  Fbg: 216.6 mg/dL
  Hb: 13.3 g/dL
  Ht: 38%
  Lym: 73%
  MCH: 21.6 pg
  MCHC: 35%
  MCV: 61.7 fL
  Mono: 3.2%
  Neu: 21.4%
  PT: 12.9 s
  Plat: 122 x10_4/uL
  RBC: 615 x10_4/ul
  Ret: 7.7%
  WBC: 113.2 x10_2/uL
  KIDNEY_L: 1 g
  KIDNEY_R: 1 g
  KIDNEY_TOTAL: 2 g
  LIVER: 9.4 g
  A/G: 1.5
  ALP: 745.6 IU/L
  ALT: 32.2 IU/L
  AST: 64.6 IU/L
  BUN: 10.6 mg/dL
  CRE: 0.4 mg/dL
  Ca: 10.6 mg/dL
  Cl: 103.8 meq/L
  DBIL: 0.078 mg/dL
  GLC: 184.4 mg/dL
  IP: 8.9 mg/dL
  K: 4.2 meq/L
  LDH: 211 IU/L
  Na: 140.8 meq/L
  PL: 135.4 mg/dL
  RALB: 3.3 g/dL
  TBIL: 0.1 mg/dL
  TC: 78.8 mg/dL
  TG: 55 mg/dL
  TP: 5.5 g/dL
  gamma-GTP: 1.2 IU/L
[2]
  TERMINAL_BW: 213.9 g
  APTT: 19.3 s
  Bas: 0%
  Eos: 1%
  Fbg: 245.8 mg/dL
  Hb: 13.1 g/dL
  Ht: 37.3%
  Lym: 75.4%
  MCH: 21.5 pg
  MCHC: 35.2%
  MCV: 61.1 fL
  Mono: 2.6%
  Neu: 19.8%
  PT: 12.9 s
  Plat: 126.6 x10_4/uL
  RBC: 609.4 x10_4/ul
  Ret: 8%
  WBC: 77.1 x10_2/uL
  KIDNEY_L: 1 g
  KIDNEY_R: 1 g
  KIDNEY_TOTAL: 2 g
  LIVER: 9.3 g
  A/G: 1.5
  ALP: 749 IU/L
  ALT: 33.2 IU/L
  AST: 62 IU/L
  BUN: 11 mg/dL
  CRE: 0.3 mg/dL
  Ca: 10.7 mg/dL
  Cl: 103.4 meq/L
  DBIL: 0.07 mg/dL
  GLC: 191.8 mg/dL
  IP: 9.6 mg/dL
  K: 4 meq/L
  LDH: 219.8 IU/L
  Na: 141.2 meq/L
  PL: 146.6 mg/dL
  RALB: 3.2 g/dL
  TBIL: 0.1 mg/dL
  TC: 82.2 mg/dL
  TG: 42.2 mg/dL
  TP: 5.5 g/dL
  gamma-GTP: 1.2 IU/L
100 mg/kg, 9 h, dose level Low
  TERMINAL_BW: 211 g
  APTT: 19 s
  Eos: 1.2%
  Fbg: 229.2 mg/dL
  Hb: 12.7 g/dL
  Ht: 39%
  Lym: 65.6%
  MCH: 20.8 pg
  MCHC: 32.7%
  MCV: 63.6 fL
  Mono: 9.2%
  Neu: 24.4%
  PT: 12.3 s
  Plat: 124.9 x10_4/uL
  RBC: 612.8 x10_4/ul
  Ret: 6.7%
  WBC: 65.8 x10_2/uL
  KIDNEY_R: 0.9 g
  KIDNEY_TOTAL: 1.9 g
  LIVER: 9.4 g
  A/G: 2.1
  ALP: 1192 IU/L
  ALT: 30.2 IU/L
  AST: 66 IU/L
  BUN: 14.8 mg/dL
  CRE: 0.4 mg/dL
  Ca: 11.2 mg/dL
  Cl: 105 meq/L
  DBIL: 0.01 mg/dL
  GLC: 187.2 mg/dL
  IP: 7.8 mg/dL
  K: 4.8 meq/L
  LDH: 62.8 IU/L
  Na: 138.2 meq/L
  PL: 137.8 mg/dL
  RALB: 3.8 g/dL
  TBIL: 0.03 mg/dL
  TC: 77.8 mg/dL
  TG: 91.2 mg/dL
  TP: 5.6 g/dL
  gamma-GTP: 1 IU/L
[3]
  TERMINAL_BW: 237.1 g
  APTT: 18.4 s
  Bas: 0%
  Eos: 1%
  Fbg: 214.8 mg/dL
  Hb: 13.5 g/dL
  Ht: 38.6%
  Lym: 79.6%
  MCH: 22.1 pg
  MCHC: 35.2%
  MCV: 62.9 fL
  Mono: 2.6%
  Neu: 15.2%
  PT: 12.3 s
  Plat: 116.3 x10_4/uL
  RBC: 614.4 x10_4/ul
  Ret: 6.9%
  WBC: 90.9 x10_2/uL
  KIDNEY_L: 1.1 g
  KIDNEY_R: 1.1 g
  KIDNEY_TOTAL: 2.1 g
  LIVER: 12.4 g
  A/G: 1.6
  ALP: 970.4 IU/L
  ALT: 39.2 IU/L
  AST: 63.4 IU/L
  BUN: 15.8 mg/dL
  CRE: 0.4 mg/dL
  Ca: 10.8 mg/dL
  Cl: 102.4 meq/L
  DBIL: 0.1 mg/dL
  GLC: 219.8 mg/dL
  IP: 7.3 mg/dL
  K: 4.3 meq/L
  LDH: 196.4 IU/L
  Na: 139.6 meq/L
  PL: 159.2 mg/dL
  RALB: 3.3 g/dL
  TBIL: 0.2 mg/dL
  TC: 79.2 mg/dL
  TG: 112.4 mg/dL
  TP: 5.4 g/dL
  gamma-GTP: 0.6 IU/L
[4]
  TERMINAL_BW: 213.4 g
  APTT: 16.1 s
  Eos: 0.8%
  Fbg: 227 mg/dL
  Hb: 13.1 g/dL
  Ht: 40%
  Lym: 74.8%
  MCH: 20.8 pg
  MCHC: 32.7%
  MCV: 63.7 fL
  Mono: 10.2%
  Neu: 14.2%
  PT: 12 s
  Plat: 129.7 x10_4/uL
  RBC: 628.4 x10_4/ul
  Ret: 5.8%
  WBC: 76.3 x10_2/uL
  KIDNEY_L: 1 g
  KIDNEY_R: 1 g
  LIVER: 10.4 g
  A/G: 2.2
  ALP: 1379.2 IU/L
  ALT: 32.6 IU/L
  AST: 62.6 IU/L
  BUN: 15.4 mg/dL
  Ca: 11.1 mg/dL
  Cl: 105.4 meq/L
  DBIL: 0.01 mg/dL
  GLC: 194.2 mg/dL
  IP: 9.1 mg/dL
  K: 4.7 meq/L
  LDH: 73.4 IU/L
  Na: 141 meq/L
  PL: 150.8 mg/dL
  RALB: 3.8 g/dL
  TBIL: 0.028 mg/dL
  TC: 85.8 mg/dL
  TG: 118.6 mg/dL
  TP: 5.6 g/dL
  gamma-GTP: 0 IU/L
[5]
  TERMINAL_BW: 206.1 g
  APTT: 16.4 s
  Bas: 0%
  Eos: 1%
  Fbg: 227.6 mg/dL
  Hb: 13.2 g/dL
  Ht: 40.2%
  Lym: 72.2%
  MCH: 21.2 pg
  MCHC: 32.9%
  MCV: 64.5 fL
  Mono: 5%
  Neu: 21.8%
  PT: 11.9 s
  Plat: 123.8 x10_4/uL
  RBC: 623.2 x10_4/ul
  Ret: 7.6%
  WBC: 84.5 x10_2/uL
  KIDNEY_L: 0.9 g
  KIDNEY_R: 0.9 g
  KIDNEY_TOTAL: 1.8 g
  LIVER: 8.5 g
  A/G: 2.2
  ALP: 1192.4 IU/L
  ALT: 38 IU/L
  AST: 65 IU/L
  BUN: 12.4 mg/dL
  CRE: 0.4 mg/dL
  Ca: 11.5 mg/dL
  Cl: 103 meq/L
  DBIL: 0.004 mg/dL
  GLC: 185.2 mg/dL
  IP: 10.1 mg/dL
  K: 4.2 meq/L
  LDH: 108.2 IU/L
  Na: 138.6 meq/L
  PL: 131.6 mg/dL
  RALB: 4 g/dL
  TBIL: 0.03 mg/dL
  TC: 86.4 mg/dL
  TG: 37.2 mg/dL
  TP: 5.8 g/dL
  gamma-GTP: 1 IU/L
[6]
  TERMINAL_BW: 204.8 g
  APTT: 16.7 s
  Bas: 0%
  Eos: 1.4%
